Experimental data: PubChem BioAssay (NCI)
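Tested at 5 concentrations; 48 h exposure; 96-well plates; endpoints linearly interpolated, else capped at highest concentration. GI50: concentration for 50% inhibition of growth. TGI: concentration producing complete growth inhibition.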

What was measured:
Assay in all cases: growth of human tumour cells (NCI), 48 h
CAKI-1 renal = test system: CAKI-1 renal
COLO 205 colon = test system: COLO 205 colon
HCC-2998 colon = test system: HCC-2998 colon
HCT-116 colon = test system: HCT-116 colon
HCT-15 colon = test system: HCT-15 colon
LOX IMVI melanoma = test system: LOX IMVI melanoma
MOLT-4 leukemia = test system: MOLT-4 leukemia
NCI-H226 lung = test system: NCI-H226 lung
NCI-H460 lung = test system: NCI-H460 lung
OVCAR-8 ovarian = test system: OVCAR-8 ovarian

Compound	GI50 (CAKI-1 renal)	TGI (CAKI-1 renal)	GI50 (COLO 205 colon)	TGI (COLO 205 colon)	GI50 (HCC-2998 colon)	TGI (HCC-2998 colon)	GI50 (HCT-116 colon)	TGI (HCT-116 colon)	GI50 (HCT-15 colon)	TGI (HCT-15 colon)	GI50 (LOX IMVI melanoma)	TGI (LOX IMVI melanoma)	GI50 (MOLT-4 leukemia)	TGI (MOLT-4 leukemia)	GI50 (NCI-H226 lung)	TGI (NCI-H226 lung)	GI50 (NCI-H460 lung)	TGI (NCI-H460 lung)	GI50 (OVCAR-8 ovarian)	TGI (OVCAR-8 ovarian)
O=C1CC(c2c[nH]c3ccc(F)cc23)C(=O)N1 (stereo not given)	> 100 µM	> 100 µM	> 100 µM	> 100 µM	> 100 µM	> 100 µM	> 100 µM	> 100 µM	> 100 µM	> 100 µM	> 100 µM	> 100 µM	> 100 µM	> 100 µM	> 100 µM	> 100 µM	> 100 µM	> 100 µM	> 100 µM	> 100 µM
CCCCN(CCCC)C(=O)[C@H](CC)[C@@H]1CC[C@@H](C)[C@@H]([C@H](C)[C@@H](O)[C@@H](C)C(=O)[C@H](CC)C2O[C@]3(C=C[C@@H](O)[C@]4(CC[C@@](C)([C@H]5CC[C@](O)(CC)[C@H](C)O5)O4)O3)[C@H](C)C[C@@H]2C)O1 (stereo not given in full)	1.91 µM	9.02 µM	2.45 µM	5.99 µM	2.01 µM	5.04 µM	2.39 µM	6.9 µM	2.31 µM	6.12 µM	1.43 µM	2.97 µM	2.68 µM	8.31 µM	2.01 µM	5.51 µM	1.99 µM	4.47 µM	3.43 µM	65.4 µM
C#Cc1cccc(Nc2ncnc3cc(NC(=O)CCl)ccc23)c1	1.78 µM	6.06 µM	3.62 µM	7.45 µM	4.16 µM	8.46 µM	1.19 µM	4.15 µM	0.743 µM	3.42 µM	0.74 µM	2.97 µM	0.739 µM	3.45 µM	4.72 µM	11.6 µM	2.89 µM	6.63 µM	1.61 µM	6.58 µM
O=C1/C(=C/c2ccc(Cl)c(Cl)c2)CN(C(=O)C(Cl)Cl)C/C1=C\c1ccc(Cl)c(Cl)c1	0.244 µM	0.826 µM	0.178 µM	0.638 µM	0.181 µM	0.355 µM	0.0315 µM	0.12 µM	0.033 µM	0.802 µM	0.0362 µM	0.136 µM	0.0985 µM	> 100 µM	0.192 µM	0.366 µM	0.261 µM	0.935 µM	0.0505 µM	1.51 µM
CSc1ccc(C2=C(c3ccccc3)C(=O)OC2)cc1	0.409 µM	10.1 µM	0.763 µM	> 100 µM	0.309 µM	18.9 µM	0.637 µM	61.7 µM	0.202 µM	3.46 µM	0.385 µM	38.7 µM	0.174 µM	> 100 µM	4.3 µM	53.3 µM	1.29 µM	> 34.8 µM	0.639 µM	> 100 µM
O=C1NC(=S)S/C1=C\c1cn(-c2ccccc2)nc1-c1ccccc1	7.14 µM	51.8 µM	21.2 µM	75.8 µM	6.05 µM	47.1 µM	5.62 µM	21.3 µM	4.71 µM	23.2 µM	10 µM	55.4 µM	14.8 µM	> 100 µM	20.3 µM	76.5 µM	5.5 µM	19.2 µM	11.4 µM	> 100 µM
